Test results: patent publication EP0408973B1, “Antiherpes pentapeptides” (BIO-MEGA/BOEHRINGER INGELHEIM RESEARCH INC., priority 1989, dated 1991)
Starred links: 1 amine or outer side, 2 acyl side, 3 side chain; linkers in the order of their positions; H or OH if unused. Non-standard residues stand in square brackets, D forms with d. Residues, ends and D or L forms follow the SMILES beside them. *: point of attachment. Ala(1H-tetrazol-5-yl) = N[C@@H](Cc1nnn[nH]1)C(=O)O; X1 = CC(C)[C@@H](C(=O)[*:2])N(CCc1ccccc1)[*:1]; Benzoyl(2-Ph) = O=C(c1ccccc1-c1ccccc1)*; Desaminotyrosyl = O=C(CCc1ccc(O)cc1)*; Butanoyl(4-Ph) = O=C(CCCc1ccccc1)*; Hydrocinnamoyl = O=C(CCc1ccccc1)*; Pentanoyl(4-Me) = CC(C)CCC(=O)*; X3 = CC(C)C[C@H](N*)c1nnn[nH]1; X2 = O=C(c1ccccc1Cc1ccccc1)*; NMeV = CN[C@H](C(=O)O)C(C)C

Biological target: HSV-1 ribonucleotide reductase (Human herpesvirus 1, UniProt P08543)
Experiment: biochemical
Excerpt: Inhibition of Herpes Simplex Virus (HSV, type 1) Ribonucleotide Reductase
• a) Preparation of Enzyme HSV-1 ribonucleotide reductase (partially purified) was obtained from quiescent BHK-21/C13 cells infected with strain F HSV-1 virus at 10 plaque forming units/cell as described by E.A. Cohen et al., J. Gen. […] The number of units of the enzyme preparation used in each assay was constant, based on the specific activity of the enzyme preparation.

HSV-1 ribonucleotide reductase, sequence (P08543 whole entry): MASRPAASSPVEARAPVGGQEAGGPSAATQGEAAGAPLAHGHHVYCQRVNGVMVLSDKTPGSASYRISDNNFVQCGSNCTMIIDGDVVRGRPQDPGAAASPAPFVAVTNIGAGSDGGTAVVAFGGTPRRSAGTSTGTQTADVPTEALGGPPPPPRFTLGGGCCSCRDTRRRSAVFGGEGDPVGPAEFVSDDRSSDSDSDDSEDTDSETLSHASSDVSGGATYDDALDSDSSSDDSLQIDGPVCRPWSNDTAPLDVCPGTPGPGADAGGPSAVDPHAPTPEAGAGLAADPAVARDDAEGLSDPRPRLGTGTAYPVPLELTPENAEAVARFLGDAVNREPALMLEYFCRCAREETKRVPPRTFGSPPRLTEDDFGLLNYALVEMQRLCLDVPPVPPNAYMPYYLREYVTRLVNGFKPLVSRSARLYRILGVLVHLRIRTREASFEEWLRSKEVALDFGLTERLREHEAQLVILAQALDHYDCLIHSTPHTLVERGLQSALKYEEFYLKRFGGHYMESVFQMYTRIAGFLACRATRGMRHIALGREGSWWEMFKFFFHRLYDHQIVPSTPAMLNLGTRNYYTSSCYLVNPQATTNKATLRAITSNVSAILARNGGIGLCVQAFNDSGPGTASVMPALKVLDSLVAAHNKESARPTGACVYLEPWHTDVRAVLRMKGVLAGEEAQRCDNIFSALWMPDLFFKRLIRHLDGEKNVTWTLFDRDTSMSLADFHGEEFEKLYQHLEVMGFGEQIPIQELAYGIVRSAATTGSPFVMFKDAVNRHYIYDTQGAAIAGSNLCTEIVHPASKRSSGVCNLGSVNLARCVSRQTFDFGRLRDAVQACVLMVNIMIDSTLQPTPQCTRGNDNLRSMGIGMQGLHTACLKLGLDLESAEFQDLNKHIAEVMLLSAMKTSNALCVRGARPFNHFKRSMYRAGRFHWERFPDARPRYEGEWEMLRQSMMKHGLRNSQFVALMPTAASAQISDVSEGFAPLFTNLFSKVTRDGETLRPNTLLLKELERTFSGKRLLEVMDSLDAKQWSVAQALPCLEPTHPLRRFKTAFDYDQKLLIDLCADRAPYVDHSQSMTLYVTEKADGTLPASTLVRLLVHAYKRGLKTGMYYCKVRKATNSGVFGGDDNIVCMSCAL

| Compound | IC50 [µM] |
| --- | --- |
| CC[C@H](C)[C@H](NC(=O)[C@H](C(C)C)N(C)C(=O)c1ccccc1Cc1ccccc1)C(=O)N[C@@H](CC(N)=O)C(=O)N[C@@H](CC(=O)O)C(=O)N[C@@H](CC(C)C)C(=O)O (X2-[NMeV]INDL-OH) | 5.5 |
| CC[C@H](C)[C@H](NC(=O)[C@H](C(C)C)N(C)C(=O)c1ccccc1-c1ccccc1)C(=O)N[C@@H](CC(N)=O)C(=O)N[C@@H](CC(=O)O)C(=O)N[C@@H](CC(C)C)C(=O)O ({Benzoyl(2-Ph)}-[NMeV]INDL-OH) | 2.5 |
| CC[C@H](C)[C@H](NC(=O)[C@H](C(C)C)N(C)C(=O)CCC(C)C)C(=O)N[C@@H](CC(N)=O)C(=O)N[C@@H](CC(=O)O)C(=O)N[C@@H](CC(C)C)C(=O)O [(CH3)2CHCH2CH2CO / CH3 / CONH2 / COOH] ({Pentanoyl(4-Me)}-[NMeV]INDL-OH) | 7.6 |
| CC[C@H](C)[C@H](NC(=O)[C@H](C(C)C)N(CCc1ccccc1)C(C)=O)C(=O)N[C@@H](CC(N)=O)C(=O)N[C@@H](CC(=O)O)C(=O)N[C@@H](CC(C)C)C(=O)O [CH3CO / PhCH2CH2 / CONH2 / COOH] (Ac-[X1]INDL-OH) | 17 |
| CC[C@H](C)[C@H](NC(=O)[C@H](C(C)C)N(C)C(=O)CCc1ccc(O)cc1)C(=O)N[C@@H](CC(N)=O)C(=O)N[C@@H](CC(=O)O)C(=O)N[C@@H](CC(C)C)C(=O)O [DAT / CH3 / CONH2 / COOH, DAT-N-Me-Val-Ile-Asn-Asp-Leu-OH] (Desaminotyrosyl-[NMeV]INDL-OH) | 6 |
| CC[C@H](C)[C@H](NC(=O)[C@H](C(C)C)N(C)C(=O)CCCc1ccccc1)C(=O)N[C@@H](CC(N)=O)C(=O)N[C@@H](CC(=O)O)C(=O)N[C@@H](CC(C)C)C(=O)O [PhCH2CH2CH2CO / CH3 / CONH2 / COOH] ({Butanoyl(4-Ph)}-[NMeV]INDL-OH) | 6.2 |
| CC[C@H](C)[C@H](NC(=O)[C@H](C(C)C)N(C)C(=O)CCc1ccccc1)C(=O)N[C@@H](Cc1nnn[nH]1)C(=O)N[C@@H](CC(=O)O)C(=O)N[C@@H](CC(C)C)C(=O)O [PhCH2CH2CO / CH3 / 5-1H-t / COOH, PhCH2CH2CO-N-Me-Val-Ile-NHCH[CH2-5-1H-tetrazole]CO-Asp-Leu-OH] (Hydrocinnamoyl-[NMeV]I[Ala(1H-tetrazol-5-yl)]DL-OH) | 2 |
| CC[C@H](C)[C@H](NC(=O)[C@H](C(C)C)N(C)C(=O)CCc1ccccc1)C(=O)N[C@@H](CC(N)=O)C(=O)N[C@@H](CC(=O)O)C(=O)N[C@@H](CC(C)C)c1nnn[nH]1 [PhCH2CH2CO / CH3 / CONH2 / 5-1H-t, PhCH,CH,CO-N-Me-Val-Ile-Asn-Asp-NHCH[CH2-CH(CH3)2]-5-1H-tetrazole] (Hydrocinnamoyl-[NMeV]IND-X3) | 3.8 |
